Laboratory results from US20250154105A1, “POLYCYCLIC COMPOUND AND USE THEREOF” (TYK MEDICINES, INC., priority 2021, published 2025).

Columns and labels:
[1] = system: human pleural mesothelioma cells NCI-H226; assay: Cell anti-proliferation experiment (CCK8), NCI-H226; type: cell-based
Source text: TEST EXAMPLE 1 CELL ANTI-PROLIFERATION EXPERIMENT
Determination of proliferation inhibition of YAP-TEAD inhibitor compounds on human pleural mesothelioma cells NCI-H226
Experimental materials and equipments: Human pleural mesothelioma cells NCI-H226 was purchased from NANJING COBIOER BIOSCIENCES CO., LTD. RPMI-1640 medium (Bio-Channel), DMSO (dimethyl sulfoxide), CCK8 (WST-8) Cell Assay Kit (Beyotime), 0.25% EDTA-Tripsin (trypsin digest), 1×PBS (phosphate buffer, PH7.2), 96-well plate (Corning), fetal bovine serum (FBS), 10,000 U/mL penicillin-G/streptomycin, high-speed freezing centrifuge (EPPENDORF 5810R), enzyme-linked immunosorbent assay (Tecan Spark).
1. Cell plating • A) Tumor cells were cultured to 80-90% density in RPMI-1640 (containing 10% FBS and 100 U/mL penicillin-G/streptomycin) under the condition of 37° C., 5% CO2 and saturated humidity. • B) The culture medium was removed from the 10 cm culture dish. • C) Cells were washed with 10 ml 1×PBS. • D) 4 ml of 0.25% EDTA-Tripsin was added to digest pancreatin for 5 minutes in an incubator at 37° C. and 5% CO2. Then the mixture was transferred to a 15 ml centrifuge tube, and centrifuged for 5 minutes at 200 g. The supernatant was discarded to obtain cell precipitation. • E) The cell precipitation was resuspended with 4 ml of […], counted and adjusted to 10,000 cells/ml. • F) The cell suspension was added to a 96-well plate with a volume of 100 μL per well and cultured overnight in an incubator at 37° C. and 5% CO2.
• Compound dilution • A) Preparation of gradient dilution solutions of the tested compounds: the tested compounds was configured to 1 mM stock solution. Then […] of stock solution was dissolved in 1.5 ml of DMSO-free culture solution, and then 3-fold continuous gradient dilution with 0.1% DMSO culture solution was performed to get a total of 9 concentrations. The diluted concentrations of the compound were as follows: 333.33 nM, 111.11 nM, 37.03 nM, 12.35 nM, 4.15 nM, 1.37 nM, 0.46 nM, 0.15 nM • B) After full mixing, 100 μL of culture compound solution was taken to replace the culture solution in the cell culture plate, with 4 duplicated wells at each concentration; • C) The cells were transferred to the incubator to incubate for 3 days.
• A) the cell culture plate was taken out and added with 10 μl of CCK-8 (WST-8) solution per well in the biosafety cabinet; • B) The cell culture plate was put back into the incubator and continued to incubate for 3 hours; • C) 450 nm wavelength was selected to measure absorbance value on TECAN enzyme linked immunosorbent assay detector.
The following formula was used to calculate the cell viability (% Cell Viability); • Cell Viability (%)=[A(Drug-added)-A(Blank)]/[A(0 Drug-added)-A(blank)][…] • A (Drug-added): The absorbance of wells containing cells, CCK8 solution, and drug solution. • A (Blank): The absorbance of wells containing culture medium and CCK8 solution, but without cells. • A (0 Drug-added): The absorbance of wells containing cells, CCK8 solution, but without drug solution. • Cell viability: Cell proliferation viability or cytotoxicity viability was determined by the IC50 value obtained by curve fitting using GraphPad Prism 8 software.

YAP-TEAD = YAP-TEAD inhibitor activity by Nano luciferase method (8xGTiiC-nLuc reporter in 293T cells); type: cell-based; details: Homo sapiens, HEK-293T, 48 hours incubation, read-out: Nano-luciferase detection (IC50)
Source text: EXAMPLE 2: YAP-TEAD INHIBITOR ACTIVITY WAS DETECTED BY NANO LUCIFERASE METHOD
(1) Experimental materials and equipments: 293T cells were purchased from NANJING COBIOER BIOSCIENCES CO., LTD. DMEM medium (High sugar, no phenol red, Bio-Channel), DMSO (dimethyl sulfoxide), Lipo6000™ transfection reagent (Beyotime), pGL3B-8xGTiiC-nLuc-CMV-fLuc plasmid, 0.25% EDTA-Tripsin (trypsin digest), 1×PBS (phosphate buffer, PH7.2), 96-well white cell culture plate (PerkinElmer), fetal bovine serum (FBS), 10,000 U/mL penicillin-G/streptomycin, high-speed freezing centrifuge (EPPENDORF 5810R), 37° C. CO2 incubator, Vi-cell® Cell Counter, Envision Microplate Reader (PerkinElmer).
The revived 293T cells were inoculated into a 10 cm culture dish and placed in an incubator with 5% CO2, and cultured at constant temperature of 37° C. To ensure transfection efficiency, cells at logarithmic phase (cell density of approximately 50%-70%) should be used.
On the day before transfection, cells at the logarithmic phase were digested with Trypsin-EDTA, and culture medium was added to terminate digestion. The cell suspension was prepared by blowing and mixing using a pipette.
Cell concentration was measured using Vi-cell, and the cell suspension was diluted to a suspension of 5*10^^5 cells per milliliter. After preparing the cell suspension, the suspension was gently mixed. 10 ml of liquid was added to a 10 cm culture dish. In this way, the number of cells in each 10 cm culture dish was 5*10^^6. The cells were incubated at a constant temperature of 37° C. for 1 day in an incubator with 5% CO2.
Two clean and sterile centrifuge tubes were taken and added with 750 μL opti-MEM Medium without antibiotics and serum, respectively. Then one tube was added with 15 μg Plasmid (pGL3B-8xGTiiC-nLuc-CMV-fLuc), and gently blew and mixed well using a pipette; the other tube was added with Lipo6000 transfection reagent, and gently blew and mixed using a pipette. After standing at room temperature for 5 minutes, the culture solution containing DNA was added gently to the culture solution containing Lipo6000 transfection reagent, and mixed well by gently inverting the centrifuge tube, then standing at room temperature for 5 minutes.
The above mixture was added evenly to a 10 cm culture dish and replaced with fresh complete culture medium after 6 hours of cultivation.
After transfection for 1 day, cells were digested with Trypsin EDTA, and culture medium was added to terminate the digestion. The cell suspension was prepared by blowing and mixing using a pipette.
Cell concentration was measured using Vi-cell, and the cell suspension was diluted to a suspension of 20000 cells per milliliter.
After preparing the cell suspension, the suspension was gently mixed, and added to 96-well plate with 100 μL per well. Thus, the density of the cells to be tested is 2000 cells per well.
The inoculated cell culture plate was placed in the incubator for cultivation, and after about 24 hour, compounds with concentration gradient were added.
10 mM compound stock solution was diluted with culture medium to 50 μM. Compound solution of 50 μM was added to the third column of the deep well plate, 216 μL of culture medium containing 0.5% DMSO was added to the fourth to eleventh columns, successively.
Gradient dilution: taking 100 μL of solution from the third column and adding the solution to the fourth column and mixing well; then taking 100 µL of solution from the fourth column again and adding the solution to the fifth column, repeating this operation until the eleventh column.
Taking 25 μL of compound solution from the deep well plate and adding it to a 96-well culture plate using a multi-channel pipette. Repeating four times on the 96 well plate for each compound. Finally, a concentration gradient of 1:3.16 was formed in the 96-well plate with a maximum concentration of 10,000 nM. The • (5) Addition of Nano Luciferase Detection Reagent and Read […]

IC50 [1] [nM] | IC50 (YAP-TEAD) [nM] | SMILES
1000 to 5000 | 1000 to 5000 | N#CC1CN(C(=O)c2ccc3c(c2)c(=O)ccn3-c2ccc(C(F)(F)F)cc2)C1 [Example T-38]
≤ 1000 | ≤ 1000 | CNS(=O)(=O)c1ccc2c(c1)-c1ncn(CCOC)c1CN2c1ccc(C(F)(F)F)cc1 [Example T-39]
≤ 1000 | ≤ 1000 | CNS(=O)(=O)c1ccc2c(c1)c1cn(CCOC)nc1c(=O)n2-c1ccc(C(F)(F)F)cc1 [Example T-45]
≤ 1000 | ≤ 1000 | CNS(=O)(=O)c1ccc2c(c1)c1ncn(CCO)c1c(=O)n2-c1ccc(C(F)(F)F)cc1 [Example T-46]
≤ 1000 | ≤ 1000 | CN[S+]([O-])c1ccc2c(c1)c1ncn(CCOC)c1c(=O)n2-c1ccc(C(F)(F)F)cc1 (centres unmarked) [Example T-47]
≤ 1000 | ≤ 1000 | CNS(=O)(=O)c1ccc2c(c1)c1ncn(C)c1c(=O)n2Cc1ccc(C(F)(F)F)cc1 [Example T-48]
≤ 1000 | ≤ 1000 | CNS(=O)(=O)c1ccc2c(c1)-c1ncn(C)c1CN2Cc1ccc(C(F)(F)F)cc1 [Example T-49]
1000 to 5000 | 1000 to 5000 | CC(C)NC(=O)c1ccc2c(c1)cc(Br)c(=O)n2-c1ccc(C(F)(F)F)cc1 [Example T-50]
≤ 1000 | ≤ 1000 | CNS(=O)(=O)c1ccc2c(c1)-c1nn(C)cc1CC(=O)N2c1ccc(C(F)(F)F)cc1 [Example T-51]
≤ 1000 | ≤ 1000 | CNS(=O)(=O)c1ccc2c(c1)-c1cn(C)nc1CC(=O)N2c1ccc(C(F)(F)F)cc1 [Example T-52]
≤ 1000 | ≤ 1000 | CNS(=O)(=O)c1ccc2c(c1)-c1nn(C)cc1CCN2c1ccc(C(F)(F)F)cc1 [Example T-54]
≤ 1000 | ≤ 1000 | CNS(=O)(=O)c1ccc2c(c1)-c1cn(C)nc1CCN2c1ccc(C(F)(F)F)cc1 [Example T-55]
≤ 1000 | ≤ 1000 | CNS(=O)(=O)c1ccc2c(c1)c1ncn(C)c1c(=O)n2-c1cccc(C(F)(F)F)c1 [Example T-57]
≤ 1000 | ≤ 1000 | CNS(=O)(=O)c1ccc2c(c1)c1nn(C)cc1c(=O)n2-c1cccc(C(F)(F)F)c1 [Example T-58]
≤ 1000 | ≤ 1000 | CNS(=O)(=O)c1ccc2c(c1)c1ncn(C)c1c(=O)n2-c1ccccc1 [Example T-60]
≤ 1000 | ≤ 1000 | CNS(=O)(=O)c1ccc2c(c1)c1nn(C)cc1c(=O)n2-c1ccccc1 [Example T-61]
≤ 1000 | ≤ 1000 | CNS(=O)(=O)c1ccc2c(c1)c1nn(C)cc1c(=O)n2-c1ccc(F)cc1 [Example T-65]

IC50 [1] [nM] | IC50 (YAP-TEAD) [nM] | SMILES
≤ 1000 | ≤ 1000 | CNS(=O)(=O)c1ccc2c(c1)c1cn(C)nc1c(=O)n2-c1ccc(F)c(F)c1 [Example T-66]
≤ 1000 | ≤ 1000 | CNS(=O)(=O)c1ccc2c(c1)c1nn(C)cc1c(=O)n2-c1ccc(F)c(F)c1 [Example T-68]
≤ 1000 | ≤ 1000 | CNS(=O)(=O)c1ccc2c(c1)c1nn(C)cc1c(=O)n2-c1cccc(F)c1 [Example T-72]
1000 to 5000 | ≤ 1000 | CNS(=O)(=O)c1ccc2c(c1)c1nn(C)cc1c(=O)n2-c1cccc(C)c1 [Example T-79]
≤ 1000 | ≤ 1000 | CNS(=O)(=O)c1ccc2c(c1)c1nn(C)cc1c(=O)n2-c1ccc(C)cc1 [Example T-82]
≤ 1000 | ≤ 1000 | CC(C)NC(=O)c1ccc2c(c1)c1nn(C)cc1c(=O)n2-c1ccc(C(F)(F)F)cc1 [Example T-86]
1000 to 5000 | 1000 to 5000 | COC(=O)c1ccc2c(c1)c1ncn(C)c1c(=O)n2-c1ccc(C(F)(F)F)cc1 [Example T-99]
1000 to 5000 | 1000 to 5000 | COC(=O)c1ccc2c(c1)c1nn(C)cc1c(=O)n2-c1ccc(C(F)(F)F)cc1 [Example T-100]
≤ 1000 | ≤ 1000 | Cn1cc2c(=O)n(-c3ccc(C(F)(F)F)cc3)c3ccc(C(=O)NC(C)(C)C)cc3c2n1 [Example T-101]
≤ 1000 | ≤ 1000 | Cn1cc2c(=O)n(-c3ccc(C(F)(F)F)cc3)c3ccc(C(=O)NC4CC4)cc3c2n1 [Example T-102]
≤ 1000 | ≤ 1000 | COCC(C)NC(=O)c1ccc2c(c1)c1nn(C)cc1c(=O)n2-c1ccc(C(F)(F)F)cc1 (centres unmarked) [Example T-107]
1000 to 5000 | 1000 to 5000 | Cn1cc2c(=O)n(-c3ccc(C(F)(F)F)cc3)c3ccc(C(=O)O)cc3c2n1 [Example T-110]
≤ 1000 | ≤ 1000 | CNC(=O)c1ccc2c(c1)c1nn(C)cc1c(=O)n2-c1ccc(C(F)(F)F)cc1 [Example T-111]
≤ 1000 | ≤ 1000 | Cn1cc2c(=O)n(-c3ccc(C(F)(F)F)cc3)c3ccc(C(=O)NCc4ccccn4)cc3c2n1 [Example T-113]
≤ 1000 | 1000 to 5000 | Cn1cc2c(=O)n(-c3ccc(C(F)(F)F)cc3)c3ccc(C(N)=O)cc3c2n1 [Example T-114]
1000 to 5000 | 1000 to 5000 | CN(C)Cc1cccc(NC(=O)c2ccc3c(c2)c2nn(C)cc2c(=O)n3-c2ccc(C(F)(F)F)cc2)c1 [Example T-115]
1000 to 5000 | 1000 to 5000 | CN(C)CCCNC(=O)c1ccc2c(c1)c1nn(C)cc1c(=O)n2-c1ccc(C(F)(F)F)cc1 [Example T-118]
